According to patent US5069909A, “Transdermal administration of buprenorphine” (Cygnus Therapeutic Systems, priority 1990, dated 1991):
Values after ≈ are worked out from the molar mass of the structure shown. Where a name gives a salt, the structure may show the parent alone. Read-outs that look alike come from different tables or passages of the source.

Columns and labels:
[1] = flow-through cells
[2] = format: in vitro ADME, Human; details: 32° C.; for Jskin: aqueous (deionized water) saturated solution, side-by-side cells; for increase of skin flux upon stripping (fold): stripped vs heat-separated epidermis
Protocol: (§1) Stirring was set at 200 rpm throughout the experiment. […] The samples were assayed by HPLC.
In order to determine the principal diffusional barrier of skin in transporting both base and HCl salt across the membrane, the permeating of drug through heat-separated epidermis was compared with stripped epidermis. Stripping removes most of the stratum corneum. The skin was stripped with Scotch brand cellophane tape to remove stratum corneum twenty times. Permeations of the base and the HCl salt through heat-separated epidermis and stripped epidermis from saturated aqueous solution at 32° C. are shown in Table 7.

physchem = format: physicochemical; details: for solubility thermodynamic: read-out: Cs
Protocol: Solubility Determination: The solubility of buprenorphine base and HCl salt in various vehicles was obtained by equilibrating a large excess of solute with the vehicle in a water-jacketed glass container. Temperature was maintained at 32° C. by a constant temperature water bath and vigorous mixing with a magnetic stirring bar. Equilibrium time for all the studies was ≥48 hr. An excess of solute was always present in the slurries. Samples were taken, filtered through glass wool-tipped pipets, and an appropriate volume of filtrate was diluted with acetonitrile and assayed by HPLC. The procedure was repeated three times and an average value calculated.

[3] = Octanol-water partition coefficient
pKa = format: physicochemical
in vitro = in vitro ADME, Human; details: for Jskin: n=3; for Papp: human, P = J/Cs, read-out: P (permeability coefficient) (converted)
Protocol: as §1

[4] = cited from earlier work

In the case of CO[C@@]12CC[C@@]3(C[C@@H]1[C@](C)(O)C(C)(C)C)[C@H]1Cc4ccc(O)c5c4[C@@]3(CCN1CC1CC1)[C@H]2O5 [Buprenorphine HCl], the “skin flux from saturated solutions, comparison (in words)” value [1] is reported as “relatively higher penetration than the base form”, the “skin flux of HCl salt vs base (in words)” value ([2]; aqueous saturated solution) is reported as “higher than that of the base form” and the Jskin ([2]; epidermis) is reported as 2.1 (2.4, 1.7) μg/cm^2 /h. The Jskin ([2]; stripped epidermis) was 20.5 ± 4.3 μg/cm^2 /h, the “increase of skin flux upon stripping (fold)” value [2] was 10 fold and the “solubility (in words)” value (physchem) was “considerably higher than the free base form's”. The Solubility (physchem; deionized water) was 12000 µg/mL, the solubility (physchem; deionized water, water) was 12000 µg/mL and the solubility (physchem; propylene glycol, organic solvent or mixture) was 22500 µg/mL. For the same compound, the logP [3] was 2.63.

In the case of CO[C@]12CC[C@@]3(C[C@@H]1[C@](C)(O)C(C)(C)C)[C@H]1Cc4ccc(O)c5c4[C@@]3(CCN1CC1CC1)[C@H]2O5 [Buprenorphine, (5α, 7α (s))-17-(cyclopropylmethyl)-α (1,1-dimethylethyl)-4,5-epoxy18,19-dihydro-3-hydroxy-6-methoxy-α-methyl-6,14-ethenomorphinan-7-methanol], the pKa (pKa) is reported as 8.4, the Jskin ([2]; epidermis) is reported as 0.37 (0.35, 0.39) μg/cm^2 /h and the Jskin ([2]; stripped epidermis) is reported as 2.2 ± 0.3 μg/cm^2 /h. For the same compound, the “increase of skin flux upon stripping (fold)” value [2] was 6 fold, the Jskin (in vitro; equilibrium pH 5.0, 32° C.) was 0.59 ± 0.13 μg/cm^2 /h and the Jskin (in vitro; equilibrium pH 6.0, 32° C.) was 0.48 ± 0.02 μg/cm^2 /h. It also gave a Jskin (in vitro; equilibrium pH 7.0, 32° C.) of 0.14 ± 0.01 μg/cm^2 /h, a Jskin (in vitro; equilibrium pH 7.9, 32° C.) of 0.05 ± 0.02 μg/cm^2 /h and a Jskin (in vitro; equilibrium pH 8.7, 32° C.) of 0.03 ± 0.01 μg/cm^2 /h. For the same compound, the Papp (in vitro; equilibrium pH 5.0, 32° C.) was 0.242 ×10⁻⁶ cm/s, the Papp (in vitro; equilibrium pH 6.0, 32° C.) was 1.64 ×10⁻⁶ cm/s and the Papp (in vitro; equilibrium pH 7.0, 32° C.) was 6.39 ×10⁻⁶ cm/s. For the same compound, the Papp (in vitro; equilibrium pH 7.9, 32° C.) was 23.1 ×10⁻⁶ cm/s, the Papp (in vitro; equilibrium pH 8.7, 32° C.) was 58.3 ×10⁻⁶ cm/s and the “skin flux as a function of pH (in words)” value (in vitro; pH 8.7 to 5) was “increased as the pH was decreased to 5”. The “permeability coefficient as a function of pH (in words)” value (in vitro; pH raised to 8.7) was “increased as the pH was raised to 8.7”, the Solubility (physchem; Transcutol, 32° C.) was 88600 µg/mL (≈ 189000 µM) and the Solubility (physchem; Water (deionized), 32° C.) was 8 µg/mL (≈ 17.1 µM). The solubility (physchem; Water (deionized), 32° C., read-out: Solubility) was 8 µg/mL (≈ 17.1 µM), the solubility thermodynamic (physchem; equilibrium pH 5.0, 32° C.) was 692 µg/mL (≈ 1480 µM) and the solubility thermodynamic (physchem; equilibrium pH 6.0, 32° C.) was 82 µg/mL (≈ 175 µM). The solubility thermodynamic (physchem; equilibrium pH 7.0, 32° C.) was 6 µg/mL (≈ 12.8 µM), the solubility thermodynamic (physchem; equilibrium pH 7.9, 32° C.) was 0.6 µg/mL (≈ 1.28 µM) and the solubility thermodynamic (physchem; equilibrium pH 8.7, 32° C.) was 0.14 µg/mL (≈ 0.299 µM). The solubility (physchem; organic solvent or mixture, Ethanol (absolute), 32° C., read-out: Solubility) was 58400 µg/mL (≈ 125000 µM), the solubility (physchem; organic solvent or mixture, Isopropyl myristate, 32° C., read-out: Solubility) was 13300 µg/mL (≈ 28400 µM) and the solubility (physchem; organic solvent or mixture, Propylene Glycol, 32° C., read-out: Solubility) was 5100 µg/mL (≈ 10900 µM). The solubility (physchem; organic solvent or mixture, Propylene glycol-monolaurate, 32° C., read-out: Solubility) was 37900 µg/mL (≈ 81000 µM), the solubility (physchem; organic solvent or mixture, Transcutol, 32° C., read-out: Solubility) was 88600 µg/mL (≈ 189000 µM) and the “solubility as a function of pH (in words)” value (physchem; pH 5.0 to 8.7) was “decreases exponentially as the pH increases”. The “CIT (clearance, ClT)” value ([4]; Daily dose […] (i.v., tid)) was 77 ± 5 L/h, the “T1/2 β” value ([4]; Daily dose […] (i.v., tid)) was 3.1 ± 0.6 h and the Vdss ([4]; in vivo, iv) was 188 ± 35 L. The “MEC (analgesics)” value ([4]; in vivo) was 0.5 to 0.7 ng/mL and the logP [3] was 3.09.
